The text below walks through data of ChEMBL document CHEMBL1124030, “Synthesis and biological activity of the four stereoisomers of 6-[4-[3-[[2-hydroxy-3-[4-[2- (cyclopropylmethoxy)ethyl]phenoxy]propyl]amino]-propionamido] phenyl]-5-methyl-4,5-dihydro-3(2H)-pyridazinone, a combined vasodilator and beta-adrenoceptor antagonist” (1988).

Holding throughout (assay type): functional
Test [1] deals with Rattus norvegicus. The test can be described thus: Dose required to produce a 50% increase in blood flow to the autoperfused hindquarters of the anesthetized normotensive rat.
In test [2] the test system is Rattus norvegicus. The test can be described thus: Dose required to produce a fall in blood pressure of 40 mmHg in the anesthetized normotensive rat.
In test [3] the test system is Felis catus. The test can be described thus: Dose required to induce 50% inhibition of isoprenaline-induced tachycardia in the ganglion blocked anesthetized cat. The settings on record: read-out: ID50 (the source's name).

`C[C@@H]1CC(=O)NN=C1c1ccc(NC(=O)CCNC[C@@H](O)COc2ccc(CCOCC3CC3)cc2)cc1`: the ED50 was found to be 0.9 µmol/kg in test [1] and 20.2 µmol/kg in test [3]. For the same compound, the ED40 in test [2] amounted to 4.9 µM/kg.

Regarding `CC1CC(=O)NN=C1c1ccc(NC(=O)CCNCC(O)COc2ccc(CCOCC3CC3)cc2)cc1` (stereo not given), the results for the ED50 in test [1] and in test [3] were 1.6 µmol/kg and 1.7 µmol/kg, respectively. The compound further gave an ED40 in test [2] of 2.4 µM/kg.

In the case of `C[C@H]1CC(=O)NN=C1c1ccc(NC(=O)CCNC[C@H](O)COc2ccc(CCOCC3CC3)cc2)cc1`, the values for the ED50 in test [1] and in test [3] were above 40 µmol/kg and 1.6 µmol/kg, respectively. In test [2], this compound came in with an ED40 above 40 µM/kg.

As to `C[C@H]1CC(=O)NN=C1c1ccc(NC(=O)CCNC[C@@H](O)COc2ccc(CCOCC3CC3)cc2)cc1`, the ED50 in test [1] was above 40 µmol/kg; in test [3], 8.6 µmol/kg. In test [2], this compound came in with an ED40 of 20 µM/kg.

On to `C[C@@H]1CC(=O)NN=C1c1ccc(NC(=O)CCNC[C@H](O)COc2ccc(CCOCC3CC3)cc2)cc1`, for which the ED50 is 1 µmol/kg in test [1] and 1.7 µmol/kg in test [3]. The compound further gave an ED40 in test [2] of 2.4 µM/kg.
